For 21 molecules, T/C results are on record in PubChem BioAssay AID330 (DTP/NCI, 2004).

“And” between values parts separate entries of the source, which are not always exact repeats. Equal entries are not always repeated. Toxic doses and inconclusive results are not listed.

The experiment concerns P388 leukemia ip, CD2F1 mice, survival T/C. Description: NCI In Vivo Anticancer Drug Screen. Data for tumor model P388 Leukemia (intraperitoneal) in CD2F1 (CDF1) mice. To be noted: endpoint: median survival time, higher = longer survival. In outline: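 Mice carrying the transplanted tumor received test compound or vehicle. Survival was recorded in each group, and the value is the treated-group measurement divided by that of the vehicle-treated control group.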

[1] abbreviates: dose: 50.0 mg/kg/injection, schedule: Q01DX005 (ip), vehicle: Klucel (hydroxypropylcellulose) (HPC).
The mark [2] stands for this setting: dose: 50.0 mg/kg/injection, schedule: Q01DX009 (ip), vehicle: saline with Tween-80.
The mark [3] stands for this setting: dose: 100.0 mg/kg/injection, schedule: Q01DX009 (ip), vehicle: saline with Tween-80.
Setting [4] is: dose: 200.0 mg/kg/injection, schedule: Q01DX009 (ip), vehicle: saline with Tween-80.
The mark [5] stands for this setting: dose: 50.0 mg/kg/injection, schedule: Q01DX009 (ip), vehicle: saline.
The mark [6] stands for this setting: dose: 100.0 mg/kg/injection, schedule: Q01DX009 (ip), vehicle: saline.
Where [7] appears, read: dose: 200.0 mg/kg/injection, schedule: Q01DX009 (ip), vehicle: saline.
[8] abbreviates: dose: 100.0 mg/kg/injection, schedule: Q01DX005 (ip), vehicle: Klucel (hydroxypropylcellulose) (HPC).
The mark [9] stands for this setting: dose: 200.0 mg/kg/injection, schedule: Q01DX005 (ip), vehicle: Klucel (hydroxypropylcellulose) (HPC).
The mark [10] stands for this setting: dose: 50.0 mg/kg/injection, schedule: Q01DX005 (ip), vehicle: saline with Tween-80.

For the molecule `CCN=C(NCC)c1ccc(NC(=O)Nc2ccc(NC(=O)Nc3ccc(C(=NCC)NCC)cc3)cc2)cc1`, the T/C reads like this: (dose: 3.12 mg/kg/injection, schedule: Q01DX005 (ip), vehicle: Klucel (hydroxypropylcellulose) (HPC)) 107 % of control; (dose: 6.25 mg/kg/injection, schedule: Q01DX005 (ip), vehicle: Klucel (hydroxypropylcellulose) (HPC)) 111 % of control; (dose: 12.5 mg/kg/injection, schedule: Q01DX005 (ip), vehicle: Klucel (hydroxypropylcellulose) (HPC)) 116 % of control; (dose: 25.0 mg/kg/injection, schedule: Q01DX005 (ip), vehicle: Klucel (hydroxypropylcellulose) (HPC)) 156 % of control; under setting [1], 122 % of control.
Consider `Cc1ccc(S(=O)(=O)N/N=C/C(C)c2cccnc2)cc1` (configuration not stated), for which the T/C runs as follows: under setting [2], 105 % of control; under setting [3], 99 % of control; under setting [4], 107 % of control.
In the case of `COc1cccc(OC)c1OC(=O)Nc1ccccc1F`, the T/C is 102 % of control (dose: 60.0 mg/kg/injection, schedule: Q01DX005 (ip), vehicle: saline with Tween-80); 105 % of control (dose: 120.0 mg/kg/injection, schedule: Q01DX005 (ip), vehicle: saline with Tween-80); 102 % of control (dose: 240.0 mg/kg/injection, schedule: Q01DX005 (ip), vehicle: saline with Tween-80).
Take `COC(=O)C1c2ccccc2CC(=O)N1NC(=O)c1ccccc1` (configuration not stated): the T/C (dose: 50.0 mg/kg/injection, schedule: Q01DX009 (ip), vehicle: Klucel (hydroxypropylcellulose) (HPC)) was 98 % of control and the T/C (dose: 100.0 mg/kg/injection, schedule: Q01DX009 (ip), vehicle: Klucel (hydroxypropylcellulose) (HPC)) is 94 % of control.
As to `COP(=O)(O)Oc1ccccc1` (tested in a mixture with another compound), the T/C is 101 % of control under setting [5], 100 % of control under setting [6] and 99 % of control under setting [7].
Consider `CCCC1OP(=O)(N(CCOC(C)=O)CCOC(C)=O)OCC1CC` (configuration not stated), for which the T/C under setting [1] was 96 % of control, the T/C under setting [8] is 98 % of control and the T/C under setting [9] was 96 % of control.
In the case of `CC(C)(C)C(=O)Oc1ccc([N+](=O)[O-])cc1`, the T/C is 106 % of control (dose: 100.0 mg/kg/injection, schedule: Q04DX002 (ip), vehicle: saline with Tween-80); 122 % of control (dose: 200.0 mg/kg/injection, schedule: Q04DX002 (ip), vehicle: saline with Tween-80); 102 % of control (dose: 400.0 mg/kg/injection, schedule: Q04DX002 (ip), vehicle: saline with Tween-80).
Consider `CCN(CC)CCN(CC)c1ccccc1`, for which the T/C reads like this: under setting [10], 105 % of control; (dose: 100.0 mg/kg/injection, schedule: Q01DX005 (ip), vehicle: saline with Tween-80) 102 % of control.
Consider `CCOCC(=O)[C@]1(O)Cc2c(O)c3c(c(O)c2[C@@H](OC2CC(N)C(O)C(C)O2)C1)C(=O)c1c(OC)cccc1C3=O` (some centres not stated), for which the T/C was 153 % of control (dose: 1.56 mg/kg/injection, schedule: Q01DX009 (ip), vehicle: water); 158 % of control and 163 % of control (dose: 3.13 mg/kg/injection, schedule: Q01DX009 (ip), vehicle: water).
For the molecule `O=C1CN(C2CCCCC2)CC(=O)N2CCCCN12`, the T/C was 108 % of control (dose: 50.0 mg/kg/injection, schedule: Q01DX005 (ip), vehicle: saline); 105 % of control (dose: 100.0 mg/kg/injection, schedule: Q01DX005 (ip), vehicle: saline); 103 % of control (dose: 200.0 mg/kg/injection, schedule: Q01DX005 (ip), vehicle: saline).
With `O=C(O)c1cc2ccccc2o1`, the T/C is, setting by setting: (dose: 25.0 mg/kg/injection, schedule: Q04DX003 (ip), vehicle: saline with Tween-80) 100 % of control; (dose: 50.0 mg/kg/injection, schedule: Q04DX003 (ip), vehicle: saline with Tween-80) 104 % of control; under setting [3], 95 % of control; (dose: 100.0 mg/kg/injection, schedule: Q04DX003 (ip), vehicle: saline with Tween-80) 104 % of control; under setting [4], 95 % of control.
Take `CC(O)(c1ccccc1)C(CCl)N1CCCCC1` (configuration not stated): the T/C is 100 % of control under setting [2], 105 % of control under setting [3] and 105 % of control under setting [4].
For the molecule `CC1=CC[C@@H](Br)C(C)(C)[C@]12CC[C@]1(C)O[C@@H]1C2`, the T/C runs as follows: (dose: 12.5 mg/kg/injection, schedule: Q01DX005 (ip), vehicle: saline + alcohol) 110 % of control; (dose: 25.0 mg/kg/injection, schedule: Q01DX005 (ip), vehicle: saline + alcohol) 110 % of control; (dose: 50.0 mg/kg/injection, schedule: Q01DX005 (ip), vehicle: saline + alcohol) 105 % of control; (dose: 100.0 mg/kg/injection, schedule: Q01DX005 (ip), vehicle: saline + alcohol) 105 % of control.
In the case of `CN1CCN(Cc2oc(CO)cc(=O)c2O)CC1`, the T/C by setting is: (dose: 60.0 mg/kg/injection, schedule: Q01DX005 (ip), vehicle: saline) 103 % of control; (dose: 120.0 mg/kg/injection, schedule: Q01DX005 (ip), vehicle: saline) 92 % of control; (dose: 240.0 mg/kg/injection, schedule: Q01DX005 (ip), vehicle: saline) 104 % of control.
Consider `CC(=O)NS(=O)(=O)c1ccc(NC(=O)c2ccco2)cc1`, for which the T/C was 98 % of control (dose: 50.0 mg/kg/injection, schedule: Q01DX009 (ip), vehicle: saline + alcohol); 104 % of control (dose: 100.0 mg/kg/injection, schedule: Q01DX009 (ip), vehicle: saline + alcohol); 91 % of control (dose: 200.0 mg/kg/injection, schedule: Q01DX009 (ip), vehicle: saline + alcohol).
For `CC/C(=N\NS(=O)(=O)c1ccc(C)cc1)c1cccc(C#N)c1`, the T/C was 106 % of control under setting [5], 96 % of control under setting [6] and 99 % of control under setting [7].
Take `CC(=O)NCC(C)C`: the T/C was 100 % of control (dose: 100.0 mg/kg/injection, schedule: Q01DX001 (ip), vehicle: saline); 100 % of control (dose: 200.0 mg/kg/injection, schedule: Q01DX001 (ip), vehicle: saline); 100 % of control (dose: 400.0 mg/kg/injection, schedule: Q01DX001 (ip), vehicle: saline).
For `CC(C)COC(=O)N(CCCl)N=O`, the T/C by setting is: (dose: 0.62 mg/kg/injection, schedule: Q01DX009 (ip), vehicle: saline with Tween-80) 100 % of control and 111 % of control; (dose: 1.25 mg/kg/injection, schedule: Q01DX001 (ip), vehicle: saline with Tween-80) 103 % of control; (dose: 1.25 mg/kg/injection, schedule: Q01DX009 (ip), vehicle: saline with Tween-80) 108 % of control and 116 % of control; (dose: 2.5 mg/kg/injection, schedule: Q01DX001 (ip), vehicle: saline with Tween-80) 100 % of control; (dose: 2.5 mg/kg/injection, schedule: Q01DX009 (ip), vehicle: saline with Tween-80) 112 % of control and 115 % of control and 120 % of control; (dose: 5.0 mg/kg/injection, schedule: Q01DX001 (ip), vehicle: saline with Tween-80) 100 % of control and 112 % of control. Moreover, the T/C by setting is: (dose: 5.0 mg/kg/injection, schedule: Q01DX009 (ip), vehicle: saline with Tween-80) 100 % of control and 97 % of control; (dose: 10.0 mg/kg/injection, schedule: Q01DX001 (ip), vehicle: saline with Tween-80) 90 % of control.
As to `N#CCc1c(-c2ccccc2)c(-c2ccccc2)c2n1CCC2`, the T/C was 98 % of control under setting [1], 99 % of control under setting [8] and 96 % of control under setting [9].
`CN1c2ccccc2S(=O)(=O)n2c(COc3ccccc3)nnc21`: the T/C is 97 % of control (dose: 12.5 mg/kg/injection, schedule: Q01DX005 (ip), vehicle: saline with Tween-80); 97 % of control (dose: 25.0 mg/kg/injection, schedule: Q01DX005 (ip), vehicle: saline with Tween-80); 100 % of control and 91 % of control under setting [10]; 88 % of control (dose: 200.0 mg/kg/injection, schedule: Q01DX005 (ip), vehicle: saline with Tween-80).
As to `[NH-]CC([NH-])=O.[NH-]CC([NH-])=O.[Ni]`, the T/C by setting is: (dose: 1.0 mg/kg/injection, schedule: Q01DX009 (ip), vehicle: saline) 100 % of control; (dose: 2.0 mg/kg/injection, schedule: Q01DX009 (ip), vehicle: saline) 95 % of control; (dose: 4.0 mg/kg/injection, schedule: Q01DX009 (ip), vehicle: saline) 100 % of control; (dose: 8.0 mg/kg/injection, schedule: Q01DX009 (ip), vehicle: saline) 100 % of control.
